Measured values reported in patent US12059473B2, “Humanized anti-prostate -specific membrane antigen (PSMA) antibody drug conjugates” (Ambrx, Inc., priority 2018, dated 2024).

Columns and labels:
[1] = system: C4-2 human carcinoma xenografts; patient derived xenograft (PDX) TM00298 prostate tumors; test: Repeat dose and enzalutamide combination efficacy in prostate tumor models; assay type: in vivo, mice; conditions: enzalutamide as a single agent; prostate cancer cells
Description: Anti-tumor efficacy of the anti-PSMA ADCs of the invention in combination with hormone therapy enzalutamide was tested in tumor xenograft model in mice engrafted with prostate cancer cell line. Metastatic castration resistant prostate cancer (mCRPC) relevant cell line, C4-2, was obtained from ATCC and expanded in vitro following ATCC instructions. C4-2 human carcinoma xenografts were grown in male immune-compromised mice with cells implanted subcutaneously. A second model using male immunocompromised mice bearing patient derived xenograft (PDX) TM00298 (Jackson Laboratories, CA) prostate tumors was also studied.
Mice were weighed and measured for tumor volume using an electronic caliper. Individual tumor volume was calculated as length×width×width/2. Mice with vascularized tumors (determined by appearance) averaging a volume of 500 mm^3 were randomized into treatment groups and were dosed intravenously per individual body weight. Anti-PSMA ADCs were administered intravenously at 0.5, 1, and 3 mg/kg weekly for 4 weeks in the C4-2 model and at 1 and 3 mg/kg weekly for 4 weeks in the PDX model. In both prostate models, enzalutamide was administered orally daily at 10 mg/kg, for 28 days. In both prostate models, one group of mice were administered a combination therapy of 1 mg/kg anti-PSMA ADC plus 10 mg/kg enzalutamide, FIGS. 7 and 8. […]

[2] = system: cell surface PSMA expression; conditions: in vitro; Murga et al. 2015; cited from earlier work

CNC(=O)c1ccc(N2C(=S)N(c3ccc(C#N)c(C(F)(F)F)c3)C(=O)C2(C)C)cc1F [enzalutamide]
level of cell surface PSMA [1]: increased the level of cell surface PSMA in prostate cancer cells
increase of cell surface PSMA expression [2]: approximately 3 fold
